Source: the NIST ThermoML archive (doi:10.1021/je050399c)
Numbers after ± are expanded uncertainties.

Details: Fluid (supercritical or subcritical phases), Vibrating wire viscometry

N#N [nitrogen]
Details	viscosity [mPa·s]
298.15 K, 100 kPa	0.01778 ± 8.5e-05
298.15 K, 150 kPa	0.01779 ± 8.3e-05
298.15 K, 200 kPa	0.01781 ± 7.8e-05
298.15 K, 250 kPa	0.01782 ± 7.7e-05
298.15 K, 300.1 kPa	0.01782 ± 7.8e-05
298.15 K, 350.1 kPa	0.01784 ± 7.7e-05
298.15 K, 400 kPa	0.01784 ± 7.7e-05
298.15 K, 450.1 kPa	0.01784 ± 7.6e-05
298.15 K, 500.1 kPa	0.01785 ± 7.6e-05
298.15 K, 600.1 kPa	0.01786 ± 7.6e-05
298.15 K, 700.1 kPa	0.01787 ± 7.7e-05
298.15 K, 800.1 kPa	0.01789 ± 7.7e-05
298.15 K, 900.1 kPa	0.0179 ± 7.8e-05
298.15 K, 1000.2 kPa	0.01792 ± 7.8e-05
298.15 K, 1100.2 kPa	0.01793 ± 7.8e-05
298.15 K, 1200.1 kPa	0.01795 ± 0.00015
298.15 K, 1300.1 kPa	0.01796 ± 7.8e-05
298.15 K, 1400.1 kPa	0.01797 ± 0.00014
298.15 K, 1500.1 kPa	0.01798 ± 7.8e-05
298.15 K, 1599.9 kPa	0.018 ± 7.9e-05
298.15 K, 1700 kPa	0.01801 ± 7.9e-05
298.15 K, 1800.1 kPa	0.01803 ± 7.8e-05
298.15 K, 1899.9 kPa	0.01805 ± 7.8e-05
298.15 K, 2000.4 kPa	0.01806 ± 7.8e-05
298.15 K, 2250 kPa	0.0181 ± 8.1e-05
298.15 K, 2500.3 kPa	0.01815 ± 8.1e-05
298.15 K, 2750.4 kPa	0.01818 ± 7.9e-05
298.15 K, 3000.9 kPa	0.01822 ± 7.9e-05
298.15 K, 3250.3 kPa	0.01825 ± 8.3e-05
298.15 K, 3500.7 kPa	0.01831 ± 8.4e-05
298.15 K, 3750.7 kPa	0.01835 ± 8.3e-05
298.15 K, 4001 kPa	0.01841 ± 8.5e-05
298.15 K, 4250.5 kPa	0.01846 ± 8.5e-05
298.15 K, 4499.8 kPa	0.01851 ± 8.8e-05
298.15 K, 4749.9 kPa	0.01858 ± 8.4e-05
298.15 K, 5000.5 kPa	0.01861 ± 8.4e-05
298.15 K, 5500.9 kPa	0.01872 ± 8.9e-05
298.15 K, 6005.4 kPa	0.01884 ± 9.1e-05
298.15 K, 6500.4 kPa	0.01897 ± 9.1e-05
298.15 K, 7002.5 kPa	0.01909 ± 9.1e-05
298.15 K, 7501.6 kPa	0.01921 ± 9.2e-05
298.15 K, 8000.9 kPa	0.01934 ± 9.3e-05
298.15 K, 8500.9 kPa	0.01947 ± 9.5e-05
298.15 K, 8999.3 kPa	0.01961 ± 9.5e-05
298.15 K, 9499.4 kPa	0.01973 ± 9.6e-05
298.15 K, 10001 kPa	0.01988 ± 9.9e-05
298.15 K, 11005 kPa	0.02018 ± 0.0001
298.15 K, 12002 kPa	0.02047 ± 0.0001
298.15 K, 13004 kPa	0.02079 ± 0.00011
298.15 K, 14004 kPa	0.0211 ± 0.00011
298.15 K, 15006 kPa	0.02142 ± 0.00011
298.15 K, 16001 kPa	0.02176 ± 0.00011
298.15 K, 17010 kPa	0.02211 ± 0.00011
298.15 K, 18008 kPa	0.02247 ± 0.00012
298.15 K, 19006 kPa	0.02284 ± 0.00012
298.15 K, 20005 kPa	0.02318 ± 0.00012
298.15 K, 21000 kPa	0.02354 ± 0.00012
298.15 K, 22001 kPa	0.02391 ± 0.00012
298.15 K, 23008 kPa	0.02429 ± 0.00012
298.15 K, 24003 kPa	0.02466 ± 0.00012
298.15 K, 25014 kPa	0.02503 ± 0.00013
298.15 K, 26005 kPa	0.02541 ± 0.00013
298.15 K, 27010 kPa	0.02581 ± 0.00013
298.15 K, 28009 kPa	0.0262 ± 0.00013
298.15 K, 29013 kPa	0.02657 ± 0.00013
298.15 K, 30010 kPa	0.02695 ± 0.00013
298.15 K, 31009 kPa	0.02735 ± 0.00014
298.15 K, 31995 kPa	0.02774 ± 0.00014
298.15 K, 33004 kPa	0.02814 ± 0.00014
298.15 K, 33949 kPa	0.02852 ± 0.00014
298.15 K, 35027 kPa	0.02893 ± 0.00014
323.15 K, 100 kPa	0.0189 ± 8.9e-05
323.15 K, 200.1 kPa	0.01893 ± 8.4e-05
323.15 K, 300.1 kPa	0.01895 ± 8.2e-05
323.15 K, 400.1 kPa	0.01896 ± 8e-05
323.15 K, 600.1 kPa	0.01898 ± 7.9e-05
323.15 K, 800.3 kPa	0.019 ± 7.9e-05
323.15 K, 1000.6 kPa	0.01903 ± 8.1e-05
323.15 K, 1500.7 kPa	0.0191 ± 8.1e-05
323.15 K, 2000.7 kPa	0.01917 ± 8.2e-05
323.15 K, 2500.9 kPa	0.01924 ± 8.3e-05
323.15 K, 3000.8 kPa	0.01932 ± 8.4e-05
323.15 K, 3502.6 kPa	0.0194 ± 8.4e-05
323.15 K, 4001.8 kPa	0.01948 ± 8.5e-05
323.15 K, 4500.4 kPa	0.01957 ± 8.6e-05
323.15 K, 5002.2 kPa	0.01965 ± 8.7e-05
323.15 K, 5503.9 kPa	0.01976 ± 8.7e-05
323.15 K, 6003.6 kPa	0.01983 ± 8.7e-05
323.15 K, 6503.6 kPa	0.01994 ± 9.2e-05
323.15 K, 7009.3 kPa	0.02005 ± 9.2e-05
323.15 K, 7502.7 kPa	0.02015 ± 9.2e-05
323.15 K, 8003.1 kPa	0.02027 ± 9.3e-05
323.15 K, 8504.2 kPa	0.02038 ± 9.4e-05
323.15 K, 9006.1 kPa	0.0205 ± 9.5e-05
323.15 K, 9500.4 kPa	0.02062 ± 9.5e-05
323.15 K, 10007 kPa	0.02073 ± 9.6e-05
323.15 K, 11007 kPa	0.02098 ± 9.9e-05
323.15 K, 12006 kPa	0.02124 ± 0.0001
323.15 K, 13005 kPa	0.02151 ± 0.0001
323.15 K, 14005 kPa	0.02176 ± 0.0001
323.15 K, 15005 kPa	0.02205 ± 0.00011
323.15 K, 16009 kPa	0.02233 ± 0.00011
323.15 K, 17007 kPa	0.02262 ± 0.00011
323.15 K, 18000 kPa	0.02292 ± 0.00011
323.15 K, 19007 kPa	0.02323 ± 0.00011
323.15 K, 19999 kPa	0.02354 ± 0.00011
323.15 K, 21010 kPa	0.02383 ± 0.00011
323.15 K, 22011 kPa	0.02417 ± 0.00012
323.15 K, 23013 kPa	0.02451 ± 0.00012
323.15 K, 24004 kPa	0.02481 ± 0.00012
323.15 K, 25005 kPa	0.02511 ± 0.00012
323.15 K, 26011 kPa	0.02547 ± 0.00012
323.15 K, 27000 kPa	0.02579 ± 0.00012
323.15 K, 28012 kPa	0.02613 ± 0.00012
323.15 K, 29014 kPa	0.02646 ± 0.00012
323.15 K, 30014 kPa	0.02677 ± 0.00013
323.15 K, 31013 kPa	0.02714 ± 0.00013
323.15 K, 31997 kPa	0.02746 ± 0.00013
323.15 K, 33007 kPa	0.02781 ± 0.00013
323.15 K, 34009 kPa	0.02814 ± 0.00013
323.15 K, 35066 kPa	0.02852 ± 0.00015
348.15 K, 100.1 kPa	0.02 ± 8.8e-05
348.15 K, 200.1 kPa	0.02003 ± 9.1e-05
348.15 K, 300.1 kPa	0.02004 ± 8.5e-05
348.15 K, 400.2 kPa	0.02005 ± 8.4e-05
348.15 K, 600.5 kPa	0.02007 ± 8.3e-05
348.15 K, 800.6 kPa	0.02009 ± 8.3e-05
348.15 K, 1000.9 kPa	0.02011 ± 8.5e-05
348.15 K, 1501.9 kPa	0.02017 ± 8.4e-05
348.15 K, 2001.6 kPa	0.02023 ± 8.5e-05
348.15 K, 2502 kPa	0.0203 ± 8.6e-05
348.15 K, 3002.6 kPa	0.02037 ± 8.7e-05
348.15 K, 3504.2 kPa	0.02044 ± 8.7e-05
348.15 K, 3999.6 kPa	0.02051 ± 8.7e-05
348.15 K, 4508.2 kPa	0.02058 ± 8.8e-05
348.15 K, 5002.2 kPa	0.02066 ± 8.9e-05
348.15 K, 5502.8 kPa	0.02074 ± 9.1e-05
348.15 K, 6003.4 kPa	0.02084 ± 9.1e-05
348.15 K, 6501.3 kPa	0.02092 ± 9.1e-05
348.15 K, 7002.3 kPa	0.02101 ± 9.2e-05
348.15 K, 7502.5 kPa	0.0211 ± 9.3e-05
348.15 K, 8002.1 kPa	0.0212 ± 9.3e-05
348.15 K, 8501.8 kPa	0.02129 ± 9.4e-05
348.15 K, 9004 kPa	0.02139 ± 9.6e-05
348.15 K, 9498.9 kPa	0.0215 ± 9.7e-05
348.15 K, 10001 kPa	0.02161 ± 9.6e-05
348.15 K, 11007 kPa	0.02182 ± 9.7e-05
348.15 K, 12007 kPa	0.02203 ± 9.9e-05
348.15 K, 13006 kPa	0.02227 ± 0.0001
348.15 K, 14001 kPa	0.0225 ± 0.0001
348.15 K, 15011 kPa	0.02274 ± 0.0001
348.15 K, 16001 kPa	0.02299 ± 0.00011
348.15 K, 17002 kPa	0.02326 ± 0.00011
348.15 K, 18004 kPa	0.02351 ± 0.00011
348.15 K, 19008 kPa	0.02378 ± 0.00011
348.15 K, 20006 kPa	0.02404 ± 0.00011
348.15 K, 21004 kPa	0.02431 ± 0.00011
348.15 K, 22011 kPa	0.02458 ± 0.00011
348.15 K, 23006 kPa	0.02486 ± 0.00012
348.15 K, 24004 kPa	0.02515 ± 0.00012
